From patent US5696151A, “Compounds useful for the inhibition of the replication of HIV-1 and HIV-1 mutants” (priority 1995, dated 1997)
In brackets after ≈: the same amount, converted by molar mass.

Columns and labels:
Assay type in all cases: cell-based
HIV-1/188-Leu = test: Inhibition of HIV-1 induced syncytium formation in CEM cells, RT mutant 188-Leu; conditions: Human immunodeficiency virus 1, CCRF-CEM, 96 h, Table 2B, day 4, averages of 2 to 3 independent experiments, read-out: Antiviral Activity of Comparative Compounds EC50, 188-Leu
From the text: (§1) CEM cells were obtained from the American Tissue Cell Culture Collection (Rockville, Md.). HIV-1(IIIB) was originally obtained from the culture supernatant of persistently HIV-1-infected H9 cells and was provided by R. C. Gallo and M. Popovic (National Cancer Institute, National Institutes of Health, Bethesda, Md.). […] 67: 5353-5359 (1993); HIV-1/Lys-138 ("Lys-138") was selected for resistance against TSAO-m^3T as described in Balzarini et al, Virology 192: 246-253 (1993) and Balzarini et al, Proc. Nat. Acad. Sci. USA 90: 6952-6956 (1993); HIV-1/181-Cys ("181-Cys") was selected for resistance against pyridinone L-697,661 as described in Balzarini et al, Virology 192: 246-253 (1993); and HIV-1/188-His ("188-His") was selected for resistance against HEPT as described in Balzarini et al, Mol. Pharmocol. 44: 694-701 (1993). 188-His was then further converted to HIV-1/188-Leu "188-Leu") upon further passage in cell culture in the absence of the HEPT.
(§2) CEM cells were suspended at ≈300,000 cells per ml of culture medium and infected with approximately 100 CCID50 (CCID50 being the 50% cell culture infective dose) of HIV-1(IIIB) or one of the HIV-1 RT mutant strains described above. Then 100 μl of the infected cell suspensions was added to 200 μl microtiter plate wells containing 100 μl of appropriate serial (5-fold) dilutions of the test compounds. The inhibitory effect of the test compounds on HIV-1 induced syncytium formation in CEM cells was examined microscopically on day 4 post infection.

HIV-1/181-Cys = test: Inhibition of HIV-1 induced syncytium formation in CEM cells, RT mutant 181-Cys; conditions: Human immunodeficiency virus 1, CCRF-CEM, 96 h, Table 2B, day 4, averages of 2 to 3 independent experiments, read-out: Antiviral Activity of Comparative Compounds EC50, 181-Cys
From the text: as §1, §2

HIV-1/106-Ala = test: Inhibition of HIV-1 induced syncytium formation in CEM cells, RT mutant 106-Ala; conditions: Human immunodeficiency virus 1, CCRF-CEM, 96 h, Table 2B, day 4, averages of 2 to 3 independent experiments, read-out: Antiviral Activity of Comparative Compounds EC50, 106-Ala
From the text: as §1, §2

HIV-1(IIIB) = test: Inhibition of HIV-1 induced syncytium formation in CEM cells, wild type; conditions: Human immunodeficiency virus 1, IIIB, CCRF-CEM, 96 h, Table 2B, WT = HIV-1(IIIB), day 4, averages of 2 to 3 independent experiments, read-out: Antiviral Activity of Comparative Compounds EC50, WT
From the text: as §1, §2

HIV-1/Lys-138 = test: Inhibition of HIV-1 induced syncytium formation in CEM cells, RT mutant 138-Lys; conditions: Human immunodeficiency virus 1, CCRF-CEM, 96 h, Table 2B, day 4, averages of 2 to 3 independent experiments, read-out: Antiviral Activity of Comparative Compounds EC50, 138-Lys
From the text: as §1, §2

HIV-1/100-Ile = test: Inhibition of HIV-1 induced syncytium formation in CEM cells, RT mutant 100-Ile; conditions: Human immunodeficiency virus 1, CCRF-CEM, 96 h, Table 2B, day 4, averages of 2 to 3 independent experiments, read-out: Antiviral Activity of Comparative Compounds EC50, 100-Ile
From the text: as §1, §2

HIV-1/103-Asn = test: Inhibition of HIV-1 induced syncytium formation in CEM cells, RT mutant 103-Asn; conditions: Human immunodeficiency virus 1, CCRF-CEM, 96 h, Table 2B, day 4, averages of 2 to 3 independent experiments, read-out: Antiviral Activity of Comparative Compounds EC50, 103-Asn
From the text: as §1, §2

in vitro = conditions: human, cem cells, CC50 (50% cytostatic concentration), Table 2B; CEM cell proliferation; averages of 2 to 3 independent experiments
From the text: as §1
^b 50% cytostatic concentration (i.e., compound concentration require
to inhibit CEM cell proliferation by 50%)

| Structure (SMILES) | EC50 (HIV-1/188-Leu) [µg/mL] | EC50 (HIV-1/181-Cys) [µg/mL] | EC50 (HIV-1/106-Ala) [µg/mL] | EC50 (HIV-1(IIIB)) [µg/mL] | EC50 (HIV-1/Lys-138) [µg/mL] | EC50 (HIV-1/100-Ile) [µg/mL] | EC50 (HIV-1/103-Asn) [µg/mL] | CC50 (in vitro) [µg/mL] |
| --- | --- | --- | --- | --- | --- | --- | --- | --- |
| Cc1c(C(=O)Nc2ccc(Cl)c(C=NOC(C)(C)C)c2)ccn1C [Compound 38] | > 2 | > 2 | 0.7 (≈ 2.01 µM) | 0.08 (≈ 0.23 µM) | ≥ 2 | ≥ 2 | ≥ 2 | 5.5 (≈ 15.8 µM) |
| CCC1=C(C(=O)Nc2ccc(Cl)c(C=NOC(C)(C)C)c2)SCCO1 [Compound 15] | > 2 | 0.09 (≈ 0.235 µM) | 0.06 (≈ 0.157 µM) | 0.03 (≈ 0.0783 µM) | 0.07 (≈ 0.183 µM) | 0.06 (≈ 0.157 µM) | 0.065 (≈ 0.17 µM) | 11.4 (≈ 29.8 µM) |
| Cc1sccc1C(=O)Nc1ccc(Cl)c(OCC2CCCC2)c1 [Compound 42] | > 2 | ≥ 2 | ≥ 2 | 0.36 (≈ 1.03 µM) | ≥ 2 | ≥ 2 | ≥ 2 | 5 (≈ 14.3 µM) |
| CC1=C(C(=O)Nc2ccc(Cl)c(C(=O)OC(C(C)C)C(C)C)c2)SCCO1 [Compound 22] | > 2 | 0.18 (≈ 0.437 µM) | 0.26 (≈ 0.631 µM) | 0.08 (≈ 0.194 µM) | 0.55 (≈ 1.34 µM) | 0.48 (≈ 1.17 µM) | 0.65 (≈ 1.58 µM) | 5.8 (≈ 14.1 µM) |
| Cc1occc1C(=S)Nc1ccc(Cl)c(OCC(C)(C)C)c1 [Compound 39] | > 2 | ≥ 2 | > 2 | 0.15 (≈ 0.444 µM) | 0.5 (≈ 1.48 µM) | 1.4 (≈ 4.14 µM) | 0.7 (≈ 2.07 µM) | 4.1 (≈ 12.1 µM) |
| CC=CCOc1cc(NC(=O)C2=C(CC)OCCS2)ccc1Cl [Compound 43] | > 2 | > 2 | 4.5 (≈ 12.7 µM) | 0.65 (≈ 1.84 µM) | 1.3 (≈ 3.67 µM) | 1.2 (≈ 3.39 µM) | 1.3 (≈ 3.67 µM) | 11 (≈ 31.1 µM) |
| Cc1sccc1C(=S)Nc1ccc(Cl)c(C(=O)OC(C(C)C)C(C)C)c1 [Compound 21] | > 2 | 0.17 (≈ 0.415 µM) | 0.23 (≈ 0.561 µM) | 0.008 (≈ 0.0195 µM) | 0.11 (≈ 0.268 µM) | 0.3 (≈ 0.732 µM) | 0.61 (≈ 1.49 µM) | 6 (≈ 14.6 µM) |
| CC=CCOc1cc(NC(=S)c2ccoc2C)ccc1Cl [Compound 2] | 0.65 (≈ 2.02 µM) | 0.075 (≈ 0.233 µM) | 0.04 (≈ 0.124 µM) | 0.006 (≈ 0.0186 µM) | 0.018 (≈ 0.0559 µM) | 0.048 (≈ 0.149 µM) | 0.023 (≈ 0.0715 µM) | 9 (≈ 28 µM) |
| CC1=C(C(=S)Nc2ccc(Cl)c(C=NOC(C)(C)C)c2)CCO1 [Compound 7] | 1.2 (≈ 3.4 µM) | 0.045 (≈ 0.128 µM) | 0.03 (≈ 0.085 µM) | 0.0065 (≈ 0.0184 µM) | 0.04 (≈ 0.113 µM) | 0.055 (≈ 0.156 µM) | 0.058 (≈ 0.164 µM) | 11 (≈ 31.2 µM) |
| Cc1sccc1C(=S)Nc1ccc(Cl)c(OCC(C)(C)C)c1 [Compound 29] | > 2 | 0.55 (≈ 1.55 µM) | 0.5 (≈ 1.41 µM) | 0.14 (≈ 0.396 µM) | 0.05 (≈ 0.141 µM) | 0.5 (≈ 1.41 µM) | 0.43 (≈ 1.21 µM) | 6.2 (≈ 17.5 µM) |
| Cc1sccc1C(=O)Nc1ccc(Cl)c(OCCC(C)C)c1 [Compound 33] | > 2 | 1.07 (≈ 3.17 µM) | 0.65 (≈ 1.92 µM) | 0.063 (≈ 0.186 µM) | 0.62 (≈ 1.84 µM) | 0.95 (≈ 2.81 µM) | 1 (≈ 2.96 µM) | 7 (≈ 20.7 µM) |
| CC1=C(C(=O)Nc2ccc(Cl)c(C=NOC(C)(C)C)c2)SCCO1 [Compound 18] | > 2 | 0.13 (≈ 0.352 µM) | 0.15 (≈ 0.407 µM) | 0.014 (≈ 0.038 µM) | 0.22 (≈ 0.596 µM) | 0.33 (≈ 0.895 µM) | 0.33 (≈ 0.895 µM) | 8.5 (≈ 23 µM) |
| Cc1sccc1C(=S)Nc1ccc(Cl)c(OCCC(C)C)c1 [Compound 12] | > 2 | 0.07 (≈ 0.198 µM) | 0.08 (≈ 0.226 µM) | 0.007 (≈ 0.0198 µM) | 0.035 (≈ 0.0989 µM) | 0.035 (≈ 0.0989 µM) | 0.035 (≈ 0.0989 µM) | > 100 |
| Cc1occc1C(=S)Nc1ccc(Cl)c(OC(=O)OC(C)C)c1 [Compound 46] | ≥ 2 | 5.5 (≈ 15.5 µM) | 3 (≈ 8.48 µM) | 0.37 (≈ 1.05 µM) | 0.6 (≈ 1.7 µM) | 4.5 (≈ 12.7 µM) | 4 (≈ 11.3 µM) | 25 (≈ 70.7 µM) |
